Test results: patent US8338450B2, “Compounds as dipeptidyl peptidase IV (DPP IV) inhibitors” (Lupin Limited, priority 2007, dated 2012)
Structures can show the parent of a compound that is named as a salt. Where two headings read alike, the source gives them in different places.

Experiments:
[1] = target: T1, human recombinant DPP-IV (Homo sapiens, UniProt P27487); assay: Inhibition of human recombinant DPP-IV (Gly-Pro-AMC hydrolysis, fluorometric); format: biochemical; conditions: for IC50: human recombinant DPP-IV, 50 μM Gly-Pro-AMC, 30 min at 30° C.; for inhibition at 1 µM: compound 1000 nM, relative to vehicle controls, read-out: % inhibition at 1000 nM
T1 construct: purchased R&D Systems, USA (or produced in-house)
Summary of the method: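 Enzyme (10 ng) was preincubated 15 min at 30° C. with compound (10 and 100 nM screen; 8 concentrations 0.1-1000 nM) in Tris-HCl pH 7.4, NaCl, KCl, BSA. 50 μM Gly-Pro-AMC was added for 30 min at 30° C. and AMC fluorescence was read (ex 360/em 460 nm). Results are given as % inhibition versus vehicle or as IC50.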

[2] = target: T2, plasma DPP-IV (Rattus norvegicus, UniProt P14740); assay: Measurement of plasma DPP-IV activity in male Wistar rats after single oral dose; format: in vivo; conditions: 10 mg/kg, p.o.; for inhibition at 10 mg/kg: rat, po
T2 construct: from tissue; host or cells: EDTA-plasma of male Wistar rats dosed orally
Procedure: Overnight-fasted male animals were administered either vehicle or single oral doses of compounds. Blood samples were withdrawn from retro-bulbar venous plexus under anesthesia at several time points up to 24 h post-dose. EDTA-plasma was separated and DPP-IV activity was measured using a fluorometric assay. Assays were carried out in 96-well flat-bottom black microwell plates. A typical reaction contained 25 μl plasma, 50 μl of 50 μM substrate (Gly-Pro-AMC) and 25 μl assay buffer (25 mM Tris-HCl, pH 7.4, 140 mM NaCl, 10 mM KCl and 1% BSA) in a total reaction volume of 100 μl. Plasma samples were incubated with the substrate for 30 min at 30° C., following which the fluorescence was measured in a microplate fluorescence redaer (POLARstar Galaxy), with excitation and emission wavelengths set at 360 nm and 460 nm, respectively. Percent inhibition in plasma DPP-IV activity due to compounds was calculated by comparing with plasma from vehicle-treated animals.

T1 sequence (P27487 whole entry): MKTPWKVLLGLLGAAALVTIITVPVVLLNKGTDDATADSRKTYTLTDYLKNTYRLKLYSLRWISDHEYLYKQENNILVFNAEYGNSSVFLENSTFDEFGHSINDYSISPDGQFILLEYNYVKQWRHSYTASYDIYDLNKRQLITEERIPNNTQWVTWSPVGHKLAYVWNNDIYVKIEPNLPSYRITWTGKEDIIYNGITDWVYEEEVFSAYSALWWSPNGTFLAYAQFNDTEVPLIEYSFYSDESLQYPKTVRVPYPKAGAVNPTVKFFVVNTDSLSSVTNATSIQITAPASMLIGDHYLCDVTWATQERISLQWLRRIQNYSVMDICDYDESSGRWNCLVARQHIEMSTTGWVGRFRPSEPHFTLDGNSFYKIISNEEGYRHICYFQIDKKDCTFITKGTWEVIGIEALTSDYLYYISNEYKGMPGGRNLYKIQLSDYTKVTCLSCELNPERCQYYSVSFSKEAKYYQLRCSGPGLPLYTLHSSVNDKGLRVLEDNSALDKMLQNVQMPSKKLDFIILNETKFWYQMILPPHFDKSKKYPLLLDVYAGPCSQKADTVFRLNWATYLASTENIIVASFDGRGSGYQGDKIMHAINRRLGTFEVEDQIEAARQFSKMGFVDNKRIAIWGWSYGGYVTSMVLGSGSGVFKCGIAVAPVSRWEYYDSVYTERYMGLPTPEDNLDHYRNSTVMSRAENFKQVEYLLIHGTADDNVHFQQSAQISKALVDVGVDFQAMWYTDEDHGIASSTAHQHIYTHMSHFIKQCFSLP
T2 sequence (P14740 37-767 limits assumed): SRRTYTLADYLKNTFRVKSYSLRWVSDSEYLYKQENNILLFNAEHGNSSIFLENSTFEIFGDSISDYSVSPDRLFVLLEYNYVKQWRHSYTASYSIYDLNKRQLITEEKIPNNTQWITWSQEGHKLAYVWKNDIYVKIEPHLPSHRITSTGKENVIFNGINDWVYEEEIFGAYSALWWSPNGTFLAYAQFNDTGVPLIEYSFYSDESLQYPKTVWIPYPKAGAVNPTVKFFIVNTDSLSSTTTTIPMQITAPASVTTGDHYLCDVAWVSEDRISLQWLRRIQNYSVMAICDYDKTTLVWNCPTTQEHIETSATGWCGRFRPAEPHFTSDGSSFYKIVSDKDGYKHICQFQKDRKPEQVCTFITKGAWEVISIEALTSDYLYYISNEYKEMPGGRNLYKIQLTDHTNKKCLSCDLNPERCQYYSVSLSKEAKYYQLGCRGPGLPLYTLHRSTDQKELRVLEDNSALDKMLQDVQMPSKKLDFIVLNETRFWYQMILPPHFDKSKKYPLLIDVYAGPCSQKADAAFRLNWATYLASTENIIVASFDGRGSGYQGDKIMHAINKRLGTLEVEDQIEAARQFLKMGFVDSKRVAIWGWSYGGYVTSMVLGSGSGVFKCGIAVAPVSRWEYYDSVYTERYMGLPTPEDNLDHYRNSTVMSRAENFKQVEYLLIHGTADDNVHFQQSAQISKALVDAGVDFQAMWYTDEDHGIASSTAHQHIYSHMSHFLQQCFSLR

In the case of `N[C@H](C(=O)N1[C@H](C(=O)O)C[C@@H]2C[C@@H]21)C1CC2CCC(C1)N2C(=O)c1ccc2c(c1)OCO2` (stereo partly drawn) (as salt: hydrochloride) [Compound 46, (1S,3S,5S)-2-{(2S)-2-Amino-2-[8-(benzo[1,3]-dioxole-5-carbonyl)-8-aza-bicyclo[3.2.1]-oct-3-yl]-exo-ethanoyl}-2-azabicyclo[3.1.0]hexane-3-carboxylic acid hydrochloride], the melting point is reported as 280 °C (dec.).
Work on `N#C[C@@H]1CCCN1C(=O)[C@@H](N)C1CC2CCC(C1)N2` (stereo partly drawn) (as salt: salt) [Compound 8, (2S)-1-{(2S)-2-Amino-2-[8-aza-bicyclo[3.2.1]oct-3-yl]-exo-ethanoyl}-pyrrolidin-2-carbonitrile trifluoro acetic acid salt] yielded a melting point of 143 to 145 °C.
In the case of `N#C[C@H]1CSCN1C(=O)[C@@H](N)C1CC2CCC(C1)N2C(=O)c1ccc(C(F)(F)F)cc1` (stereo partly drawn) (as salt: salt) [Compound 20, (4S)-3-{(2S)-2-Amino-2-[8-(4-trifluoromethyl-benzoyl)-8-aza-bicyclo[3.2.1]oct-3-yl]-exo-ethanoyl}-thiazolidin-4-carbonitrile trifluoroacetetic acid salt], the melting point is reported as 159 to 161 °C.
`N#C[C@@H]1C[C@@H]2C[C@@H]2N1C(=O)[C@@H](N)C1CC2CCC(C1)N2C(=O)c1ccnc(F)c1` (stereo partly drawn) (as salt: salt) [Compound 28, (1S,3S,5S)-2-{(2S)-2-amino-2-[8-(2-fluoropyridine-4-carbonyl)-8-aza-bicyclo[3.2.1]-oct-3-yl]-exo-ethanoyl}-2-azabicyclo[3.1.0]-hexane-3-carbonitrile trifluoro acetic acid salt] gave a melting point of 112 to 115 °C.
With `NC(=O)[C@@H]1C[C@@H]2C[C@@H]2N1C(=O)[C@@H](N)C1CC2CCC(C1)N2C(=O)c1ccc2c(c1)OCO2` (stereo partly drawn) (as salt: salt) [Compound 45, (1S,3S,5S)-2-{(2S)-2-Amino-2-[8-(benzo-[1,3]dioxole-5-carbonyl)-8-aza-bicyclo[3.2.1]oct-3-yl]-exo-ethanoyl}-2-azabicyclo[3.1.0]-hexane-3-carboxamide trifluoro acetic acid salt] the melting point was 154 to 156 °C.
Work on `C#C[C@H]1CC[C@@H](C#N)N1C(=O)[C@@H](N)C1CC2CCC(C1)N2C(=O)c1ccc(C(F)(F)F)cc1` (stereo partly drawn) (as salt: salt) [Compound 63, (2S,5R)-1-{(2S)-2-Amino-2-[8-(4-trifluoromethyl-benzoyl)-8-aza-bicyclo[3.2.1]oct-3-yl]-exo-ethanoyl}-5-ethynyl-pyrrolidin-2-carbonitrile trifluoro acetic acid salt] yielded a melting point of 160 to 163 °C.
Work on `C#C[C@H]1CC[C@@H](C#N)N1C(=O)[C@@H](N)C1CC2CCC(C1)N2C(=O)c1ccnc(F)c1` (stereo partly drawn) (as salt: salt) [Compound 66, (2S,5R)-1-{(2S)-2-Amino-2-[8-(2-fluoropyridin-4-carbonyl)-8-aza-bicyclo[3.2.1]-oct-3-yl]-exo-ethanoyl}-5-ethynyl-pyrrolidin-2-carbonitrile trifluoro acetic acid salt] yielded a melting point of 199 to 200 °C.
Work on `N[C@H](C(=O)N1CCC[C@H]1C(=O)O)C1CC2CCC(C1)N2C(=O)c1ccc(C(F)(F)F)cc1` (stereo partly drawn) (as salt: trifluoroacetic acid salt) [Compound 11, (2S)-1-{(2S)-2-amino-2-[8-(4-trifluoromethyl-benzoyl)-8-aza-bicyclo[3.2.1]-oct-3-yl]-exo-ethanoyl}-pyrrolidin-2-carboxylic acid trifluoroacetic acid salt] yielded a melting point of 161 to 163 °C.
`N[C@H](C(=O)N1CCSC1)C1CC2CCC(C1)N2C(=O)c1ccc(C(F)(F)F)cc1` (stereo partly drawn) (as salt: trifluoroacetic acid salt) [Compound 21, 3-{(2S)-2-Amino-2-[8-(4-trifluoromethyl-benzoyl)-8-aza-bicyclo[3.2.1]-oct-3-yl]-exo-ethanoyl}-1,3-thiazolidin trifluoroacetic acid salt] showed a melting point of 123 to 125 °C.
With `N[C@H](C(=O)N1CC(F)C1)C1CC2CCC(C1)N2C(=O)c1ccncc1F` (stereo partly drawn) (as salt: trifluoroacetic acid salt) [Compound 62, {(2S)-2-Amino-2-[8-(3-fluoropyridine-4-carbonyl)-8-aza-bicyclo[3.2.1]-oct-3-yl]-exo-ethanoyl}-3-fluoroazetidine trifluoroacetic acid salt] the melting point was 90 to 93 °C.
Work on `N#C[C@@H]1CCCN1C(=O)[C@@H](N)C1CC2CCC(C1)N2C(=O)c1cc(F)c(F)cc1F` (stereo partly drawn) [Compound 1, (2S)-1-{(2S)-2-Amino-2-[8-(2,4,5-trifluorobenzoyl)-8-aza-bicyclo[3.2.1]oct-3-yl]-exo-ethanoyl}-pyrrolidin-2-carbonitrile trifluoroacetic acid salt] yielded an IC50 [1] of 2.2 nM, an inhibition at 10 mg/kg ([2]; 4 h post-dose, read-out: Plasma DPP-IV Inhibition (%) 4 h) of 85% and an inhibition at 10 mg/kg ([2]; 6 h post-dose, read-out: Plasma DPP-IV Inhibition (%) 6 h) of 56%. It also gave an inhibition at 10 mg/kg ([2]; 8 h post-dose, read-out: Plasma DPP-IV Inhibition (%) 8 h) of 44%.
With `N#C[C@@H]1CCCN1C(=O)[C@@H](N)C1CC2CCC(C1)N2C(=O)c1ccc(C(F)(F)F)cc1.O=C(O)C(F)(F)F` (stereo partly drawn) [Compound 2, (2S)-1-{(2S)-2-Amino-2-[8-(4-trifluoromethylbenzoyl)-8-aza-bicyclo[3.2.1]oct-3-yl]-exo-ethanoyl}-pyrrolidin-2-carbonitrile trifluoroacetic acid salt] the IC50 [1] was 1.3 nM, the “Plasma DPP-IV Inhibition (%) 4 h” value ([2]; 4 h post-dose) was 82% and the “Plasma DPP-IV Inhibition (%) 6 h” value ([2]; 6 h post-dose) was 52%. For the same molecule, the “Plasma DPP-IV Inhibition (%) 8 h” value ([2]; 8 h post-dose) was 45%.
For `COC(=O)[C@@H]1CCCN1C(=O)[C@@H](N)C1CC2CCC(C1)N2C(=O)c1ccc(C(F)(F)F)cc1` (stereo partly drawn) [Compound 10, Methyl (2S)-1-{(2S)-2-amino-2-[8-(4-trifluoromethyl-benzoyl)-8-aza-bicyclo[3.2.1]oct-3-yl]-exo-ethanoyl}-pyrrolidin-2-carboxylate trifluoro acetic acid], the inhibition at 1 µM [1] was 41% and the melting point was 173 to 175 °C.
With `Cl.N[C@H](C(=O)N1CCC[C@H]1c1nn[nH]n1)C1CC2CCC(C1)N2C(=O)c1ccc(C(F)(F)F)cc1` (stereo partly drawn) [Compound 13, (2S)-1-{(2S)-2-Amino-2-[8-(4-trifluoromethyl-benzoyl)-8-aza-bicyclo[3.2.1]oct-3-yl]-exo-ethanoyl}-2-(2H-tetrazol-5-yl)pyrrolidine hydrochloride] the inhibition at 1 µM [1] was 21% and the melting point was 244 to 246 °C.
For `Cl.N#C[C@@H]1C[C@H](F)CN1C(=O)[C@@H](N)C1CC2CCC(C1)N2C(=O)c1ccc(C(F)(F)F)cc1` (stereo partly drawn) [Compound 15, (2S,4S)-1-{(2S)-2-Amino-2-[8-(4-trifluoromethyl-benzoyl)-8-aza-bicyclo[3.2.1]oct-3-yl]-exo-ethanoyl}-4-fluoro-pyrrolidine-2-carbonitrile hydrochloride salt], the IC50 [1] was 1.72 nM and the melting point was 168 to 170 °C.
For `N#C[C@@H]1C[C@@H]2C[C@@H]2N1C(=O)[C@@H](N)[C@@H]1C[C@H]2CC[C@@H](C1)N2C(=O)c1ccncc1.O=C(O)C(F)(F)F` [Compound 25, (1S,3S,5S)-2-{(2S)-2-Amino-2-[8-(pyridine-4-carbonyl)-8-aza-bicyclo[3.2.1]oct-3-yl]-exo-ethanoyl}-2-azabicyclo[3.1.0]hexane-3-carbonitrile trifluoroacetic acid salt], the IC50 [1] was 3.61 nM, the “Plasma DPP-IV Inhibition (%) 4 h” value ([2]; 4 h post-dose) was 68% and the “Plasma DPP-IV Inhibition (%) 6 h” value ([2]; 6 h post-dose) was 49%. The “Plasma DPP-IV Inhibition (%) 8 h” value ([2]; 8 h post-dose) was 51%.
`CC(=O)N1CCC(C(=O)N2C3CCC2CC([C@H](N)C(=O)N2[C@H](C#N)C[C@@H]4C[C@@H]42)C3)CC1` (stereo partly drawn) [Compound 69, (1S,3S,5S)-2-{(2S)-2-Amino-2-[8-(1-acetyl-piperidin-4-carbonyl)-8-aza-bicyclo[3.2.1]oct-3-yl]-exo-ethanoyl}-2-azabicyclo[3.1.0]hexane-3-carbonitrile trifluoroacetic acid salt] gave an IC50 [1] of 13 nM.
